Values quoted from earlier work in patent US7517693B2, “Method and apparatus for determining a molecular descriptor of absorption for a candidate compound” (North Carolina State University, priority 2002, dated 2009).

How the values were obtained:
[1] = Table IV study compounds
[2] = Table III calibration compounds, known literature descriptor

Structure (SMILES) | logKo/w [1] | other results
COC(=O)c1cccnc1 [methyl nicotinate] | 0.64 | –
CCC[N+](=O)[O-] [1-nitropropane] | 0.87 | –
O=[N+]([O-])c1ccc(O)cc1 [4-Nitrophenol] | 1.91 | logL^16 (solute gas-hexadecane partition coefficient) ([2]; 25° C.): 5.876; α (effective solute H-bond acidity) [2]: 0.82; β (effective solute H-bond basicity) [2]: 0.26; π (effective solute dipolarity and polarizability) [2]: 1.72
Nc1ccc(C(=O)O)cc1 [4-aminobenzoic acid] | 0.83 | –
CCCC(C)=O [Compound 2-pentanone, 2-pentanone] | 0.91 | –
CCCCI [Compound 1-iodobutane, 1-iodobutane] | 3.08 | –
CCOP(=S)(OCC)Oc1ccc([N+](=O)[O-])cc1 [Parathion] | 3.83 | –
O=S1OCC2C(CO1)C1(Cl)C(Cl)=C(Cl)C2(Cl)C1(Cl)Cl (centres unmarked) [endosulfan II] | 3.83 | –
CCOC(=O)C(O)(c1ccc(Cl)cc1)c1ccc(Cl)cc1 [Chlorobenzilate] | 4.74 | –
Nc1ccccc1 [Aniline] | 0.90 | –
